Data published in patent publication EP0396317B1, “Pharmaceutical composition” (priority 1989, dated 1990).

Experiment: solubility and pH-dependent separation of the carbenoxolone/chlorhexidine complex
Format: physicochemical

behaviour of the complex suspension at high pH (pH 9.0 or more): can be separated by filtration | behaviour of the complex suspension at low pH (pH less than 3.5 / 3.5 or less): will remain in solution
SMILES: [H]/N=C(\N/C(=N/[H])NCCCCCCNC(=N)NC(=N)Nc1ccc(Cl)cc1)Nc1ccc(Cl)cc1 [chlorhexidine]
